Assay results: ChEMBL document CHEMBL5729255, “Compounds and uses thereof” (2022)

Target: T1, Bromodomain-containing protein 9 (Homo sapiens, UniProt Q9H8M2)
T1 sequence (Q9H8M2 whole entry): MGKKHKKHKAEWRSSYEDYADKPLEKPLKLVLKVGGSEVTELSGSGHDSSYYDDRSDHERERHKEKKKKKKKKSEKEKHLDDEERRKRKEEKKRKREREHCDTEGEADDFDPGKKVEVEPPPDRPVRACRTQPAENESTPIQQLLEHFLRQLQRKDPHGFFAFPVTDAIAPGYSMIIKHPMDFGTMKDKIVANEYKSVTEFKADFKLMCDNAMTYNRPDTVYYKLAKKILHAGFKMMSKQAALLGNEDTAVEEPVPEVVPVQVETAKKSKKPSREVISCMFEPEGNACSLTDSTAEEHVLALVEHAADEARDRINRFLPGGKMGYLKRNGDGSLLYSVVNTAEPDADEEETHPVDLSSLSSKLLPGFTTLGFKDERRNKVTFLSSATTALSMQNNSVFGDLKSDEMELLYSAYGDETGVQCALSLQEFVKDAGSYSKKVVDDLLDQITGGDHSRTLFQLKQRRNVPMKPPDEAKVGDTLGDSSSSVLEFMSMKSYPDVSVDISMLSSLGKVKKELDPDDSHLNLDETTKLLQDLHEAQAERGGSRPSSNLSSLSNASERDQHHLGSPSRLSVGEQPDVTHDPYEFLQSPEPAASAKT
Assay: Bromodomain TR-FRET Competition Binding Assay: A mixture of biotinylated-ligand and SureLight Allophycocyanin-Streptavidin (APC-SA, PerkinElmer AD0201) in 50 mM HEPES (pH 7.4), 50 mM NaCl, 1 mM TCEP (pH 7), 0.01% (v/v) Tween-20, 0.01% (w/v) bovine serum albumin was added to a white 384-well PerkinElmer Proxiplate Plus plate. DMSO or 3-fold serially diluted compounds were then added to the Proxiplate followed by addition of Flag-BRD9. After a 10-minute incubation at room temperature, Eu-W1024 anti-FLAG (PerkinElmer, AD0273) was added. The final reaction miture that contained 3.75 nM biotinylated ligand, 3 nM Flag-BRD9, 7.5 nM SureLight Allophycocyanin-Streptavidin, and 0.2 nM Eu-W1024 anti-FLAG was incubated at room temperature for 90 minutes.

## COc1cc(-c2cn(C)c(=O)c3cnccc23)cc(OC)c1CN(C)Cc1cn(-c2ccc3c(c2)C(=O)N(C2CCC(=O)NC2=O)C3=O)nn1 (stereo not given)
  IC50: > 10 nM

## COc1cc(-c2cn(C)c(=O)c3cnccc23)cc(OC)c1CN1CC(S(=O)(=O)NCCCCNc2ccc3c(c2)C(=O)N(C2CCC(=O)NC2=O)C3=O)C1 (stereo not given)
  IC50: < 10 nM

## COc1cc(-c2cn(C)c(=O)c3cnccc23)cc(OC)c1CN1CCN(C(=O)CCCCOc2cccc3c2C(=O)N(C2CCC(=O)NC2=O)C3=O)CC1 (stereo not given)
  IC50: < 10 nM

## COc1cc(-c2cn(C)c(=O)c3cnccc23)cc(OC)c1CN1CCCC(OCc2cn(CCCCOc3ccc4c(c3)C(=O)N(C3CCC(=O)NC3=O)C4=O)nn2)C1 (stereo not given)
  IC50: > 10 nM

## COc1cc(-c2cn(C)c(=O)c3cnccc23)cc(OC)c1CN1CC(OCc2cn(CCOc3ccc4c(c3)C(=O)N(C3CCC(=O)NC3=O)C4=O)nn2)C1 (stereo not given)
  IC50: < 10 nM
